Experimental findings from patent US5326780A, “Imidazole derivatives having anti-HIV activity” (priority 1992, dated 1994) are described below.

Holding throughout (type): cell-based
The subject of one data set is MT-4 cell. Briefly: Cytotoxicity, MT-4 cells without virus, MTT. Particulars: 50% cytotoxicity; MT-4 cells without virus, 5-day incubation, MTT. On the procedure:
(§1) (1) A human T cell MOLT-4 clone 8, a strain continuously infected with HIV (HTLV-IIIB strain), was incubated in RPMI-1640 medium containing 10% bovine fetus serum and the supernatant was isolated by filtration. After the determination of virus titer, the supernatant was stored at -80° C. A compound to be tested was diluted with the same medium to a given concentration and poured into 96-well microtiter plates by 100 μl/well. To the well is added 50 μl (2.5×10^4 cells) MT-4 cell suspensions, followed by the addition of 50 μl [600 pfu (plaque forming unit)] HIV-containing supernatant previously diluted with the same medium.
(§2) (2) After 5-day-incubation at 37° C. in a carbon dioxide incubator, 30 μl MTT {3-(4,5-diemthylthiazol-2-yl)-2,5-diphenyltetrazolium bromide), 5 mg/ml in PBS} was added to each well, and the incubation was continued for another 1 hour, during which surviving cells reduce MTT to precipitate folmazan.
(§3) The resultant folmazan was eluted by replacing 150 μl supernatant of a culture in each well by 150 μl solution comprising 10% triton X - 100 and isopropanol containing 0.4 v/v % HCl and shaking by means of a plate mixer. The resultant folmazan was assayed at 0D 540 nm, and the result was evaluated by comparison with that obtained in a control test.
(§4) Cytotoxicity of a compound (I) was evaluated in a similar manner as described in 1 above except that 50 μl of the same medium is added to each well in place of the HIV-containing supernatant (viral solurtion).
(§5) CC50 is defiend as a concentration of the compound (I) that gives 50% cytotoxicity.

In a further data set the test system is HIV (HTLV-IIIB strain). Briefly: Infection inhibitory test: anti-HIV activity, MT-4 cells infected with HIV, MTT. Particulars: Human immunodeficiency virus 1, IIIB, MT4, 120 h. On the procedure:
Anti-HIV activity and cytotoxicity are tested in the following manners.
as §1, §2, §3
IC50 is defined as a concentration of the compound (I) that gives a 50% inhibition against vital cytotoxicity.

The nature of data set [1]: Cytotoxicity, MT-4 cells without virus, MTT. As to conditions: human. On the procedure:
as §1, §2, §3, §4, §5

Setting [2] is: 50% inhibition of viral cytotoxicity, MT-4 cells, 5-day incubation at 37 °C, MTT, read-out: IC50.

By CC50 is commonly meant the concentration giving 50% cytotoxicity. As a reminder, the IC50 is the concentration that inhibits the measured activity by half.

Values after ≈ are worked out from the molar mass of the structure shown. Where two headings read alike, the source gives them in different places. A value given as a limit tells only on which side of the number the result lay.

Take `Cc1cn([C@H]2C[C@H](N=[N+]=[N-])[C@@H](CO)O2)c(=O)[nH]c1=O` [AZT, azidodeoxythymidine, reference compound]: the CC50 in the data set on MT-4 cell was determined as 25 mg/L (≈ 93.5 µM). In the data set with HIV (HTLV-IIIB strain), the IC50 lay within 0.005 to 0.01 mg/L (≈ 0.0187 to 0.0374 µM).

For `CCc1nc(C)n(COCc2ccccc2)c1Sc1ccccc1` [Compound I-1, 1-benzyloxymethyl-4-ethyl-2-methyl-5-phenylthioimidazole], the IC50 with HIV (HTLV-IIIB strain) (setting [2]) lay in the range of 0.03 to 0.06 mg/L (≈ 0.0886 to 0.177 µM).

As to `CCc1ncn(COCc2ccccc2)c1Sc1ccccc1` [Compound I-4, 1-benzyloxymethyl-4-ethyl-5-phenylthioimidazole], in data set [1] (mt-4 cells), the CC50 at 120 h was 12.5 to 25 mg/L (≈ 38.5 to 77.1 µM). Besides, the IC50 in the data set with HIV (HTLV-IIIB strain) (setting [2]) is 0.13 to 0.25 mg/L (≈ 0.401 to 0.771 µM).

In data set [1] (mt-4 cells), `c1ccc(COCn2cncc2Sc2ccccc2)cc1` [Compound I-5, 1-benzyloxymethyl-5-phenylthioimidazoe nitrate] came in with a CC50 at 120 h of 12.5 to 25 mg/L. Besides, in the data set with HIV (HTLV-IIIB strain) (setting [2]), the IC50 is 0.13 to 0.25 mg/L.

In data set [1] (mt-4 cells), `CCCc1ncn(COCc2ccccc2)c1Sc1ccccc1` [Compound I-9] came in with a CC50 at 120 h of 12.5 to 25 mg/L (≈ 36.9 to 73.9 µM).

Molecule `CCc1nc(Br)n(COCc2ccccc2)c1Sc1ccccc1` [Compound I-12] displayed a 50% cytotoxic concentration (CC50) at 120 h in data set [1] (mt-4 cells) of 12.5 to 25 mg/L (≈ 31 to 62 µM). The 50% inhibitory concentration (IC50) in the data set with HIV (HTLV-IIIB strain) (setting [2]) lay within 0.06 to 0.13 mg/L (≈ 0.149 to 0.322 µM).

In data set [1] (mt-4 cells), `CCCc1nc(Br)n(COCc2ccccc2)c1Sc1ccccc1` [Compound I-13] registered a cytotoxic concentration (CC50) at 120 h of 12.5 to 25 mg/L (≈ 29.9 to 59.9 µM).

`CCc1nc(C)n(COCc2ccccc2)c1Sc1cc(C)cc(C)c1` [Compound I-14] registered a CC50 at 120 h in data set [1] (mt-4 cells) of 10 to 20 mg/L (≈ 27.3 to 54.6 µM). In addition, the IC50 with HIV (HTLV-IIIB strain) (setting [2]) fell in the range of 0.016 to 0.032 mg/L (≈ 0.0437 to 0.0873 µM).

For `CCOCn1c(C)nc(CC)c1Sc1cc(C)cc(C)c1` [Compound I-15], the CC50 at 120 h in data set [1] (mt-4 cells) lay within 10 to 20 mg/L (≈ 32.8 to 65.7 µM). Further, the 50% inhibitory concentration (IC50) in the data set on HIV (HTLV-IIIB strain) (setting [2]) fell in the range of 0.063 to 0.12 mg/L (≈ 0.207 to 0.394 µM).

`Cc1cc(C)cc(Sc2c(C(C)C)nc(C)n2COCc2ccccc2)c1` [Compound I-16]: the IC50 with HIV (HTLV-IIIB strain) (setting [2]) was 0.016 to 0.031 mg/L (≈ 0.042 to 0.0815 µM).

Take `Cc1nc(C(C)C)c(Sc2ccccc2)n1COCc1ccccc1` [Compound I-17]: in the data set on HIV (HTLV-IIIB strain) (setting [2]), the IC50 is 0.016 mg/L (≈ 0.0454 µM).

Turning to `CCOCn1c(C)nc(C(C)C)c1Sc1ccccc1` [Compound I-18], the CC50 at 120 h in data set [1] (mt-4 cells) lay within 25 to 50 mg/L (≈ 86.1 to 172 µM). In the data set with HIV (HTLV-IIIB strain) (setting [2]), the IC50 came out at 0.016 mg/L (≈ 0.0551 µM).

For the molecule `CCc1nc(C)n(COCCO)c1Sc1cc(C)cc(C)c1` [Compound I-29, 5-(3,5-Dimethylphenylthio)-4-ethyl-1-[(2-hydroxyethoxy)-methyl]-2-methylimidazole], in data set [1] (mt-4 cells), the CC50 at 120 h is 25 to 50 mg/L (≈ 78 to 156 µM). For the same molecule, the IC50 in the data set on HIV (HTLV-IIIB strain) (setting [2]) was 0.13 to 0.25 mg/L (≈ 0.406 to 0.78 µM).

`Cc1nc(C(C)C)c(Cc2ccccc2)n1COCc1ccccc1` [Compound I-42, 5-Benzyl-1-benzyloxymethyl-4-isopropyl-2-methylimidazole] gave a half-maximal cytotoxic concentration (CC50) at 120 h in data set [1] (mt-4 cells) of 3.1 to 6.25 mg/L (≈ 9.27 to 18.7 µM). Also, the IC50 with HIV (HTLV-IIIB strain) (setting [2]) turned out to be 0.016 mg/L (≈ 0.0478 µM).

`Cc1cc(C)cc(Cc2c(C(C)C)nc(C)n2COCc2ccccc2)c1` [Compound I-50] returned a cytotoxic concentration (CC50) at 120 h in data set [1] (mt-4 cells) of 6.25 to 12.5 mg/L (≈ 17.2 to 34.5 µM). The IC50 with HIV (HTLV-IIIB strain) (setting [2]) turned out to be 0.016 mg/L (≈ 0.0441 µM).

For `CCOCn1c(C)nc(C(C)C)c1Cc1cccnc1` [Compound I-58], in data set [1] (mt-4 cells), the CC50 at 120 h is > 100 mg/L. Further, the IC50 in the data set with HIV (HTLV-IIIB strain) (setting [2]) worked out at 0.5 mg/L (≈ 1.83 µM).

`CCOCn1c(C)nc(C(C)C)c1Cc1cc(Cl)cc(Cl)c1` [Compound I-67]: the CC50 at 120 h in data set [1] (mt-4 cells) was 6.25 to 12.5 mg/L (≈ 18.3 to 36.6 µM). Also, the IC50 with HIV (HTLV-IIIB strain) (setting [2]) was 0.005 mg/L (≈ 0.0147 µM).

Regarding `Cc1nc(C(C)C)c(Cc2cc(F)cc(F)c2)n1COCc1ccccc1` [Compound I-69], the CC50 at 120 h in data set [1] (mt-4 cells) lay within 6.25 to 12.5 mg/L (≈ 16.9 to 33.7 µM). The IC50 with HIV (HTLV-IIIB strain) (setting [2]) was found to be 0.003 mg/L (≈ 0.0081 µM).

Take `CCOCn1c(C)nc(Cc2cc(Cl)cc(Cl)c2)c1C(C)C` [Compound I-90]: the CC50 at 120 h in data set [1] (mt-4 cells) lay within 1 to 10 mg/L (≈ 2.93 to 29.3 µM). The IC50 with HIV (HTLV-IIIB strain) (setting [2]) was in the range of 0.5 to 1 mg/L (≈ 1.47 to 2.93 µM).

`Cc1nc(Cc2cc(Cl)cc(Cl)c2)c(C(C)C)n1COCc1ccccc1` [Compound I-91]: the half-maximal cytotoxic concentration (CC50) at 120 h in data set [1] (mt-4 cells) was 10 to 100 mg/L (≈ 24.8 to 248 µM). Moreover, in the data set with HIV (HTLV-IIIB strain) (setting [2]), the IC50 lay in the range of 0.5 to 1 mg/L (≈ 1.24 to 2.48 µM).

The molecule `Cc1nc(Cc2cc(F)cc(F)c2)c(C(C)C)n1COCc1ccccc1` [Compound I-92] displayed a CC50 at 120 h in data set [1] (mt-4 cells) of 6.25 to 12.5 mg/L (≈ 16.9 to 33.7 µM). Also, in the data set on HIV (HTLV-IIIB strain) (setting [2]), the IC50 was found to be 0.25 mg/L (≈ 0.675 µM).

In data set [1] (mt-4 cells), `CCOCn1c(C)nc(Cc2cc(F)cc(F)c2)c1C(C)C` [Compound I-93] came in with a CC50 at 120 h of 12.5 to 25 mg/L (≈ 40.5 to 81.1 µM). In addition, in the data set with HIV (HTLV-IIIB strain) (setting [2]), the IC50 came out at 0.06 mg/L (≈ 0.195 µM).

As to `CC(C)=CCN1Cc2cc(Cl)cc3[nH]c(=S)n(c23)C[C@@H]1C` [TIBO (R-82913), reference compound], the CC50 at 120 h in data set [1] (50% cytotoxicity, MT-4 cells without virus, 5-day incubation, MTT, read-out: CC50) is 12.5 to 25 mg/L (≈ 38.8 to 77.7 µM). Besides, the IC50 in the data set with HIV (HTLV-IIIB strain) (setting [2]) was 0.13 to 0.25 mg/L (≈ 0.404 to 0.777 µM).
